Assay results as given in patent US9149540B2, “Polymer conjugate of folic acid or folic acid derivative” (Nippon Kayaku Kabushiki Kaisha, priority 2008, dated 2015).
“And” between values parts separate entries of the source, which are not always exact repeats. Identical values can stand only once.

Experiments:
[1] = tested on: Mouse colon cancer Colon 26; assay: Antitumor effect on mouse colon cancer Colon 26-transplanted mouse; type: in vivo; conditions: for Relative tumor volume mean ± SD: 12th day after initiation of administration, day of initiation = 1.0; for suppression of tumor growth (in words) / dose dependence of tumor growth suppression (in words): single administration; for dose dependence of tumor growth suppression (in words): doses of Table 1
Protocol: Mouse colon cancer Colon 26 cells subcutaneously subcultured in a BALB/c mouse were prepared in the form of a block which measured about 2 mm on each side, and the block was subcutaneously transplanted on the dorsal part of a CDF1 mouse using a trocar. […] The tumor volume on the day of initiation of administration was taken as 1.0, and while taking the 12th day after the initiation of administration as the day of determination, the relative tumor volume of each administered group was determined. The dose in the compounds of the present invention is converted to that of MTX.

[2] = tested on: rat collagen-induced arthritis model; assay: Anti-inflammatory evaluation using rat collagen-induced arthritis model (Test Example 3)
[3] = tested on: rat collagen-induced arthritis model; assay: Anti-inflammatory evaluation 2 using rat collagen-induced arthritis model (Test Example 4); type: in vivo; conditions: 8th, 15th and 22nd day after sensitization
Protocol: The test was carried out in the same manner as in Test Example 3. […] The groups administered with 1.00 mg/kg (convert to dose of MTX) and 1.25 mg/kg (convert to dose of MTX) of MTX_G-40, and the group administered with 2.5 mg/kg of MTX were administered with the drug through the tail vein on the 1st day, 8th day, 15th day and 22nd day after sensitization.

[4] = 15 mg/kg/day tail vein, 5 successive days (total 75 mg/kg)
[5] = once 25 mg/kg in terms of MTX, tail vein
[6] = once 25 mg/kg in terms of MTX, tail vein, 25 mg/kg
[7] = once 50 mg/kg in terms of MTX, tail vein

CN(Cc1cnc2nc(N)nc(N)c2n1)c1ccc(C(=O)N[C@@H](CCC(=O)O)C(=O)O)cc1 [MTX, methotrexate, reference compound]
antitumor effect (in words) ([1]; 15 mg/kg for 5 successive days): an antitumor effect was not observed | Toxicity (death/n) [1, 4]: 0/3 | Relative tumor volume mean ± SD [1, 4]: 12.2 and 12.2 ± 8.1 | death of toxicity (in words) ([1]; 20 mg/kg for 5 successive days): all of the animals died of toxicity | Toxicity (death/n) ([1]; 20 mg/kg/day tail vein, 5 successive days (total 100 mg/kg)): 3/3 | anti-inflammatory effect, arthritis score of left footpad (FIG. 2) ([2]; 2.5 mg/kg tail vein on 1st and 8th day after sensitization): no anti-inflammatory effects were observed | anti-inflammatory effect, arthritis score of left footpad (FIG. 3) ([3]; 2.5 mg/kg tail vein on 1st): delayed the time of onset of inflammation as compared with the control group

PEG-Asp40(α-Tyramine-MTX)-Ac [MTX_A-40]
Toxicity (death/n) [1, 5]: 0/3 | Relative tumor volume mean ± SD [1, 6]: 6.8 and 6.8 ± 0.7 | death of toxicity (in words) ([1]; once 50 mg/kg in terms of MTX): one animal died of toxicity | Toxicity (death/n) [1, 7]: 1/3 | Relative tumor volume mean ± SD ([1]; once 50 mg/kg in terms of MTX, tail vein, 50 mg/kg): 4.8 and 4.8 ± 2.8 | suppression of tumor growth (in words) [1]: strongly suppress the growth of tumor with a single administration | dose dependence of tumor growth suppression (in words) [1]: tumor growth is suppressed in a manner dependent on the amount of administration | anti-inflammatory effect, arthritis score of left footpad (FIG. 2) ([2]; 2.5 mg/kg on 1st day, or 1.25 mg/kg on 1st and 8th day after sensitization, in terms of MTX, tail vein): delayed the time of onset of inflammation

PEG-Asp40(γ-Tyramine-MTX)-Ac [MTX_G-40]
anti-inflammatory effect, arthritis score of left footpad (FIG. 3) ([3]; 1.00 mg/kg (dose of MTX) tail vein on 1st): further delayed the time of onset of inflammation compared to MTX | anti-inflammatory effect, arthritis score of left footpad (FIG. 3) ([3]; 1.25 mg/kg (dose of MTX) tail vein on 1st): completely suppressed the onset of inflammation for the 28 days of monitoring

PEG-Asp44(γ-Tyramine-MTX)-Ac [MTX_G-44]
Toxicity (death/n) ([1]; once 12.5 mg/kg in terms of MTX, tail vein): 0/3 | Relative tumor volume mean ± SD ([1]; once 12.5 mg/kg in terms of MTX, tail vein, 12.5 mg/kg): 8.2 and 8.2 ± 1.0 | death of toxicity (in words) ([1]; once 25 mg/kg in terms of MTX): one animal died of toxicity | Toxicity (death/n) [1, 5]: 1/3 | Relative tumor volume mean ± SD [1, 6]: 2.3 and 2.3 ± 1.1 | Toxicity (death/n) [1, 7]: 1/3 | Relative tumor volume mean ± SD [1, 7]: 0.4 ± 0.1 | suppression of tumor growth (in words) [1]: strongly suppress the growth of tumor with a single administration | dose dependence of tumor growth suppression (in words) [1]: tumor growth is suppressed in a manner dependent on the amount of administration
